Experiment in all cases: NCI tumour cell line growth inhibition, 48 h
Test [1] deals with TK-10 renal.
Test [2] has as its system SK-MEL-28 melanoma.
Test [3] deals with SF-268 CNS.
In test [4] the test system is NCI-H522 lung.
Test [5] deals with RXF 393 renal.
Test [6] deals with DU-145 prostate.
The subject of test [7] is HOP-92 NSCLC.
The test system of test [8] is MOLT-4 leukemia.
For test [9], the system named is MCF7 breast.
The test system of test [10] is HCC-2998 colon.

Each structure is given as a SMILES string.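 Assay format: 96-well plates, 48-hour exposure. TGI is the concentration that stops growth completely.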

For `Cc1c(O)nc(-n2[nH]c3c(c2=O)CCCC3)[nH]c1=O`, the TGI in test [1], in test [2], in test [3], in [4], in test [5] and in test [6] was more than 100 µM in each case. Further, the TGI in [7] and in [8] was more than 100 µM in each case.

For the compound `O=C(NCP(=O)(Oc1ccccc1)Oc1ccccc1)OCc1ccccc1`, the TGI in test [1], in test [2], in [3], in [4], in test [7] and in test [9] was more than 100 µM in each case. The compound also came in with a TGI in test [8] of more than 100 µM.

For `On1c(-c2ccccc2)c(-c2ccccc2N2CCCC2)c2ccccc21`, the TGI in test [1], in [2], in test [3], in test [4], in test [10] and in test [7] was more than 100 µM in each case. For the same compound, the TGI in test [8] is more than 100 µM.

`O=C(CCn1ccnc1[N+](=O)[O-])NCCCn1ccnc1[N+](=O)[O-]`: the TGI in [1], in test [2], in [3], in test [4], in test [5] and in test [6] was more than 100 µM in each case. Also, the TGI in test [9] and in [8] was more than 100 µM throughout.

Consider `COc1ccc(C2c3cn[nH]c3CC3CCCCC32)cc1` (stereo unspecified), for which the TGI came to 37.1 µM in test [1]; 33.4 µM in test [2]; 39.6 µM in test [3]; 36.3 µM in test [4]; 26.3 µM in [6]; 35 µM in [10]. In addition, the values for the TGI in test [9] and in test [8] were 32.8 µM and 46.1 µM, respectively.

On to `CCCCCCCCCCCCCCCCNc1cccc2ccccc12`, for which the TGI in test [1], in test [2], in [3], in [4], in test [5] and in test [10] was more than 100 µM each time. Moreover, in [8], the TGI is more than 100 µM.

Take `S=C1NC2=C(CSC/C2=C\c2cccc(Br)c2)C(c2cccc(Br)c2)N1` (stereo unspecified): the TGI in [1], in test [2], in [3], in [4], in test [5] and in [6] was more than 100 µM each time. In addition, the TGI in test [10], in test [9] and in test [8] was more than 100 µM in each case.

With `Cc1cccc(C)c1NC(=O)C(Cc1c[nH]c2ccccc12)NC(=O)OCc1ccccc1` (stereo unspecified), the TGI is 43.7 µM in test [1]; 57.1 µM in [2]; more than 100 µM in test [3]; 72.7 µM in [4]; 36.4 µM in [5]; 51.6 µM in test [6]. In addition, the TGI in test [7] was determined as 62.4 µM; in test [9], 95.8 µM; in [8], 63.7 µM.

In the case of `O=C(O)[C@H]1CCCN1CP(=O)(O)CN1CCC[C@@H]1C(=O)O`, the TGI in test [2], in test [3], in test [4], in [5], in test [6] and in [7] was more than 100 µM throughout. The TGI in test [9] and in test [8] was more than 100 µM in each case.

For `Nc1ccc(N=Nc2c(S(=O)(=O)O)cc3ccccc3c2S(=O)(=O)O)cc1`, the TGI in test [1], in [2], in test [3], in [4], in [5] and in test [6] was more than 100 µM each time. The TGI in test [10], in test [7] and in [8] was more than 100 µM each time.

On to `Cc1nn(-c2ccccc2)c2c1C(c1cc3ccccc3nc1Cl)NC(=O)N2` (stereo unspecified), for which the TGI in [1] is more than 100 µM; in test [3], more than 100 µM; in test [4], 35.4 µM; in test [5], 55.9 µM; in test [6], more than 100 µM; in test [7], 32.1 µM. Also, in [9], the TGI turned out to be 73.9 µM.

Consider `CC(=O)NC1C(OCc2ccccc2)OC(CO)C(O)C1OCC(=O)N[C@@H](C)C(=O)N[C@H](CCC(=O)NCCCNc1c2ccccc2nc2cccc([N+](=O)[O-])c12)C(N)=O` (stereo partly specified), for which the TGI came to 1.55 µM in test [1]; 0.751 µM in test [2]; 0.0383 µM in test [4]; 0.0301 µM in test [10]; 2.42 µM in test [9]; 11 µM in test [8].

As for `CC(NC(=O)Cc1ccccc1)NC(=O)C(C)C(=O)Nc1ccccc1` (stereo unspecified), the TGI in test [1], in test [3], in test [4], in test [5], in [6] and in test [7] was more than 100 µM throughout. Besides, the TGI in test [9] and in test [8] was more than 100 µM each time.

As for `O=[N+]([O-])C(=C(Nc1cccc2cccnc12)Nc1cccc2cccnc12)C(Cl)=C(Cl)Cl`, the TGI in [1] was more than 100 µM; in [2] it was more than 100 µM; in [3], more than 100 µM; in [4] it was 56.3 µM; in [5] it was more than 100 µM; in test [6] it was more than 100 µM. The results for the TGI in test [10], in [9] and in test [8] were more than 100 µM, 54.8 µM and more than 100 µM, respectively.

With `CCOC(=O)C1S/C(=N\C(=N)N[N+](=O)[O-])N=C1C` (stereo unspecified), the TGI in [1], in test [2], in test [3], in test [4], in test [5] and in test [10] was more than 100 µM throughout. For the same compound, the TGI in test [7] and in test [8] was more than 100 µM throughout.

In the case of `O=C(O)CN1CCN2CCCCCN(CC1)CCN(CC(=O)O)CC2`, the TGI in [1], in test [2], in test [4], in [6], in test [7] and in test [9] was more than 100 µM each time.

As for `OC[C@H]1O[C@@H]2O[C@@](COCc3ccccc3)([C@H](OCc3ccccc3)[C@H]2O)[C@@H]1OCc1ccccc1`, the TGI in [1] turned out to be 33.3 µM; in test [3], 32.3 µM; in [4], 31.6 µM; in test [6], 30.1 µM; in test [7] it was 28.1 µM; in test [9], 38.8 µM. Moreover, in test [8], the TGI worked out at 21.9 µM.

Take `C[N+](C)([O-])CCOc1cc2c(c3ccccc13)-c1ccccc1C2=O`: the TGI in test [2] was 39.1 µM; in test [3], 36.4 µM; in [4] it was 26.5 µM; in test [5], 33.2 µM; in [10] it was 29.2 µM; in [7] it was more than 68.5 µM. For the same compound, the TGI in test [9] was more than 100 µM; in test [8], more than 35.3 µM.

On to `COc1cc2c(cc1OC)C(C(c1ccccc1)c1ccccc1)N(C)CC2` (stereo unspecified), for which the TGI was more than 100 µM in [2]; more than 100 µM in test [3]; more than 100 µM in test [4]; 60.2 µM in test [5]; 63.8 µM in test [10]; more than 70.8 µM in test [7]. In addition, the TGI in test [9] and in test [8] was more than 100 µM each time.

On to `S=c1c2cn[nH]c2nc2scc(-c3ccc(Cl)cc3)n12`, for which the TGI was 31.8 µM in test [1]; 46.6 µM in test [2]; 42.5 µM in test [3]; 46.9 µM in test [4]; 17.5 µM in test [5]; 32.5 µM in test [10]. Besides, the values for the TGI in test [9] and in test [8] were 36.3 µM and 60.1 µM, respectively.

Regarding `O=P(O)(O)C(N=C(Nc1ccccc1)Nc1ccccc1)P(=O)(O)O`, the TGI in test [1], in test [3], in test [4], in [5], in test [6] and in test [10] was more than 100 µM throughout. The compound further came in with a TGI in test [9] of more than 100 µM.

With `CC1(C)OC[C@@H](O)[C@H](C#N)CO1`, the TGI in test [1], in test [2], in test [3], in [4], in test [5] and in [6] was more than 100 µM each time. For the same compound, the TGI in test [10], in [9] and in test [8] was more than 100 µM throughout.

As for `C=C1CC(C#N)(C#N)[C@H]2C3CCCC3C[C@@H]12` (stereo partly specified) (tested in a mixture with another compound), the TGI in test [1] is more than 100 µM; in [2], 42.4 µM; in test [3], 61.1 µM; in test [5], 41.7 µM; in [6], more than 100 µM; in test [7], 35 µM. The TGI in [9] was 29.8 µM; in test [8] it was 43.5 µM.

For the compound `BrC(=C(c1ccc(OC2CCCCO2)cc1)c1ccc(OC2CCCCO2)cc1)c1ccccc1` (stereo unspecified), the TGI in test [1], in test [2], in test [3], in [5], in test [6] and in test [7] was more than 100 µM in each case. In addition, the TGI in [9] and in test [8] was more than 100 µM each time.

With `O=C(O)CN1CCNCCN(CC(=O)O)CCN(CC(=O)O)CCNCC1`, the TGI in test [1], in test [2], in test [4], in test [6], in test [7] and in [9] was more than 100 µM in each case. Moreover, in test [8], the TGI was more than 100 µM.

As for `Cn1c(SCc2ccc(F)cc2)nnc1C12CC3CC(CC(C3)C1)C2`, the TGI in [2] was 86.2 µM; in test [3] it was more than 100 µM; in test [4], more than 100 µM; in test [5] it was more than 100 µM; in test [6], more than 100 µM; in [10], more than 100 µM. Further, the TGI in test [7] came to 77.1 µM; in test [8], 57.1 µM.

On to `O=C(O)COc1ccccc1C(=O)Nc1ccccc1`, for which the TGI in [1], in [2], in [3], in test [4], in test [7] and in test [8] was more than 100 µM each time.

In the case of `CCNC(=S)NNC(=O)C12CC3CC(CC(C3)C1)C2`, the TGI in [1], in [2], in test [3], in test [4], in test [5] and in test [6] was more than 100 µM in each case. Further, the TGI in test [10], in test [9] and in test [8] was more than 100 µM throughout.

For the compound `CC(c1ccccc1)N1CCN(C(C)c2ccccc2)CC1` (stereo unspecified), the TGI in test [1] is more than 100 µM; in test [2] it was 95.4 µM; in [3], more than 100 µM; in test [4], more than 100 µM; in test [5] it was more than 100 µM; in test [6], more than 100 µM. Moreover, the TGI is 44.6 µM in test [10], more than 100 µM in test [7] and more than 100 µM in test [8].

`Cc1c2n(c(=O)[nH]c1=O)C1OC(CO)C(N=[N+]=[N-])C1O2` (stereo unspecified): the TGI in [1], in test [2], in test [3], in test [4], in [5] and in [7] was more than 100 µM each time. In [8], this compound yielded a TGI of more than 100 µM.

As for `CC1=Cc2cccc(C)c2C(=O)C1=O`, the TGI in [1] was 4.75 µM; in [2], 31.5 µM; in [3] it was 25.9 µM; in [4] it was 9.87 µM; in [5], 8.85 µM; in test [10], 27.8 µM. In addition, in test [7], the TGI was 2.92 µM.

Regarding `CN1CCOC1c1ccccc1O` (stereo unspecified), the TGI in [1], in test [3], in test [4], in [5], in test [7] and in test [9] was more than 100 µM throughout. This compound had a TGI in test [8] of more than 100 µM.

Consider `Cc1ccc(C2=CC(=O)OC(C[P+](c3ccccc3)(c3ccccc3)c3ccccc3)(c3ccccc3)O2)cc1` (stereo unspecified), for which the TGI worked out at 35.6 µM in test [1]; 33.5 µM in test [2]; 38.2 µM in test [3]; 26 µM in test [4]; 73.2 µM in test [5]; 30.3 µM in [6]. Moreover, the TGI in [10] was 38.2 µM; in [9], 56.6 µM; in [8], 67 µM.

The values above are taken from PubChem BioAssay (NCI).
